From US20100158857A1, “Compositions and methods for the inhibition of endothelial nitric oxide synthase activity” (University Of utah Research Foundation, priority 2006, published 2010) come the findings set out here.

Series [1] concerns C57BL/6 mice. Briefly: Systolic blood pressure by tail cuff method in IL-2 treated mice. The format is in vivo. The method, then:
Systolic blood pressure was measured via tail cuff method (Stoelting, Wood Dell, Ill.) using PowerLab digital signal transducer (AD instruments, Mountain View, Calif.). […] The lower limit of blood pressure detectable using this instrumentation is about 40 mm of Hg. This value of blood pressure was assigned whenever no detectable value could be obtained.
(§1) 1400 W was dissolved at a concentration of 1M in sterile PBS and administered via continuous subcutaneous infusion by Alzet mini osmotic pumps (Model 2001, Alzet Corporation, Cupertino, Calif.). Each pump contained 225 μL of solution that released a constant volume of 28 μL/day, resulting in a calculated delivery of 7 mg 1400 W/mouse/day.
(§2) MLA was dissolved in sterile ultra-filtered water at a concentration of 3.38M and loaded into pre-equilibrated osmotic pumps containing 225 μL of solution that released a constant volume of 28 μL/day, resulting in a calculated delivery of 18.5 mg MLA/mouse/day.

Series [2] relates to C57BL/6 mice. The experiment in a line: VLS evaluation: [125I]-labeled albumin accumulation in peritoneal fluid of IL-2 treated mice. The format is in vivo. Conditions: for Effect on IL-2 induced radio-albumin accumulation in peritoneal fluid / VLS: given with IL-2, M40403: iNOS WT or iNOS−/− mice, 1400 W: IL-2 treated mice; for [125I] labeled albumin retention in peritoneal fluid: MLA 18.5 mg/mouse/day s.c. during IL-2 treatment. As to the method: Peritoneal fluid was collected using blotting paper. Liver, spleen, intestines, kidneys, lungs and heart were also excised and analyzed for [^125l]-albumin accumulation. Data was expressed as percentage of radiolabeled albumin recovered from each tissue with the total amount recovered from each animal. This form of analysis minimizes differences induced by variability in injection technique.
as §1, §2

Series [3] has as its system peritoneal exudate cells. The experiment in a line: Inhibition of NO synthesis in IFNγ/LPS-stimulated peritoneal exudate cells (Griess reaction). Conditions: 48 hours; highest concentration MLA 1 mM, Polymethylarginine 400 uM. It is filed as cell-based. The method, then:
First, peritoneal exudate cells were elicited by thioglycolate. These cells were then harvested and cultured in 96 well microtiter wells at 1×10^6 overnight in DMEM media with 5% FCS. Media was then replaced with DMEM containing 50 Units/ml of IFNγ and 100 ng/ml bacterial lipopolysaccharide. Serial dilutions of either N^G-monomethy-L-larginine (MLA) or Polymethylarginine (poly-MLA 7-mer) were then added to experimental wells. The highest concentration of MLA was 1 mM and of Polymethylarginine was 400 uM.
The cultures were then incubated for 48 hours and culture supernatants were assayed for the NO metabolite nitrate using the Griess reaction after nitrate reduction.
Background: Griess reagent forms a coloured azo dye with nitrite.

Series [4] can be described thus: Retention of modified NOS inhibitors in the vasculature. Conditions: due to their size.
Setting [5] is: iNOS−/− mice, given together with IL-2.

As to `CC(=N)NCc1cccc(CN)c1` [1400 W], the Systolic blood pressure in series [1] (mice treated with IL-2 plus 1400 W, continuous s.c. infusion 7 mg/mouse/day) is listed as 45±7 mm of Hg. Moreover, in series [2], the “Effect on IL-2 induced radio-albumin accumulation in peritoneal fluid / VLS” value is “did not inhibit”.

For `[Cl-].[Cl-].[Mn+2].c1cc2nc(c1)CN[C@@H]1CCCC[C@H]1NCCN[C@@H]1CCCC[C@H]1NC2` [M40403], the Systolic blood pressure in series [1] (setting [5]) is 85±5 mm of Hg. The “Effect on IL-2 induced radio-albumin accumulation in peritoneal fluid / VLS” value in series [2] was “did not reverse”.

In the case of `CNC(=N)NCCC[C@H](N)C(=O)O` [MLA, N^G-monomethyl-L-arginine], in series [1] (setting [5]), the Systolic blood pressure is given as 80±10 mm of Hg. The “[125I] labeled albumin retention in peritoneal fluid” value came to 0.562±0.24% in series [2] (iNOS WT mice) and 1.66±0.06% in series [2] (iNOS−/− mice). For the same molecule, the “Effect of serial dilutions on NO production” value in series [3] is on record as “blocked NO production”.

As for `CNC(=N)NCCC[C@H](NC(=O)[C@H](CCCNC(=N)NC)NC(=O)[C@H](CCCNC(=N)NC)NC(=O)[C@H](CCCNC(=N)NC)NC(=O)[C@H](CCCNC(=N)NC)NC(=O)[C@H](CCCNC(=N)NC)NC(=O)[C@@H](N)CCCNC(=N)NC)C(=O)O` [poly-MLA, (N^G-mono-methyl-L-arginine)^7], the “Retention in the vasculature” value in series [4] is given as “retained in the vasculature”.
